pEC50: −log10 of the molar value.

Consider 9 compounds from patent US20260055083A1, “APOL1 INHIBITORS AND METHODS OF USE” (Maze Therapeutics, Inc., priority 2022, published 2026).

The target in this assay is T1, APOL1 G2 (Homo sapiens, UniProt O14791, DEL388-389).
T1 construct: expressed in transfected cells; host or cells: HEK293/T-REx APOL1 G2 clone #2, doxycycline-inducible
T1 sequence (O14791 with tags, fused parts or gaps DEL388-389): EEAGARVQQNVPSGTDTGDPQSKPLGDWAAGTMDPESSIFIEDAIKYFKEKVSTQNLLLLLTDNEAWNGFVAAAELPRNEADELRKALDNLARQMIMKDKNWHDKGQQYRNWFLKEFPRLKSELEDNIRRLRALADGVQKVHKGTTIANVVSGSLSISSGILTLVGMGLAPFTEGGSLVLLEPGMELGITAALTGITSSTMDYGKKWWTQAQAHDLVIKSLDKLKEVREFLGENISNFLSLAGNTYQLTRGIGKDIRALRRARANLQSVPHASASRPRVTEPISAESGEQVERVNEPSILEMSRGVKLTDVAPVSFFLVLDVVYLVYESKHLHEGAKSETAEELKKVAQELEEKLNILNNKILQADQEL
The assay is described as follows: APOL1 G2 HEK293 rescue of cell death caused by overexpression of APOL1 (CellTiter-Glo). The assay is classed as cell-based. To be noted: HEK293/T-REx APOL1 G2 clone #2, doxycycline induction, 17 hours, CellTiter-Glo luminescence; reversal of cell death; geometric mean of at least 2 assay runs. The procedure:
A HEK293 clonal cell line overexpressing APOL1 G2 (HEK293/T-REx APOL1 G2/clone #2) was maintained in 1×DMEM-GlutaMax (Gibco, 10569-010) media with 10% tetracycline-free FBS (Takara Bio USA, 631101), 5 μg/mL Blasticidin (Gibco, A1113903), and 100 μg/mL Zeocin (Invitrogen, R25001) in T75 flasks. In preparation for the assay, this media was aspirated and 2 mL of prewarmed TrypLE Express (Gibco, 12605-010) was added to a flask to detach cells. The flask was then incubated (humidified, 37° C. with 5% CO2) for 3-5 minutes. Afterwards, 8 mL of prewarmed cell assay media (1×DMEM-GlutaMax media with 10% tetracycline-free FBS) was added to the trypsinized cells. The suspension was gently mixed, and cells were counted using a Countess Cell Counting Chamber (Invitrogen). The suspension was diluted using cell assay media to generate a working stock solution (166,667 cells/mL). Using a MultiDrop Combi (Thermo Electron Corp), 30 μL (final cell density=5,000 cells/well) of the working stock solution was dispensed into each well of white 384-well assay ready plates (Nunc™, 164610) containing 6 ng/mL doxycycline, to induce APOL1 expression, and compound. All compounds were plated in a duplicate 8-point dilution series that consisted of 3-fold stepwise dilutions (0.5% DMSO final). Assay plates were incubated (humidified, 37° C. with 5% CO2) for 17 hours. After the incubation, the plates were equilibrated at room temperature for 1 hour. Next, 15 μl of CellTiter-Glo® reagent (Promega, G7570) was added to each well using a MultiDrop Combi. Plates were placed on an orbital shaker (500 rpm) for 5 minutes to induce cell lysis and then incubated at room temperature for 10 minutes. Luminescence was measured on an Envision plate reader. Collaborative Drug Discovery software was utilized for graphing data. Plots were generated using a four parameter logistic curve fit.
Table B2 below provides the results from this experiment. Unless otherwise specified, EC50 values are reported as the geometric mean of at least 2 assay runs on separate days. Each run represents the average of a technical replicate, where each compound was assayed twice in the same plate. A superscript t symbol indicates a value from the average of a technical replicate from a single assay run, where each compound was assayed twice in the same plate. Compounds in Table B2 are referred to by the corresponding Compound Number in Table 1, which is also referred to in the synthetic examples. When one or more of the numbered compounds are identified by stereochemistry (for example, (R)- or (S)-), the specific stereoisomer for which data is provided in Table B2 may be identified by the elution order of such compound as described in the synthetic examples. To illustrate, Compound 2 is the first-eluting enantiomer of step 4 of Example 1 and Compound 3 is the second-eluting enantiomer of step 4 of Example 1. Further, by way of illustration, Compound 27 is the first-eluting enantiomeric mixture in step 4 of Example 7 and Compound 28 is the second-eluting enantiomeric mixture in step 4 of Example 7. Then, Compound 27 is separated into Compound 29 (the first-eluting enantiomer) and Compound 30 (the second-eluting enantiomer) in Example 8, and Compound 28 is separated into Compound 31 (the first-eluting enantiomer) and Compound 32 (the second-eluting enantiomer) in Example 8. Absolute stereochemistry of such compounds may be identified by methods known in the art.
Rescue EC50 values reported in Table B2 below represent the half-maximal effective concentration for reversal of cell death caused by overexpression of APOL1.

By pEC50 is commonly meant the negative decadic logarithm of the EC50, by convention in mol/L. As to `Cc1cc(OC[C@@H]2CN(CCc3cccc(C#N)c3)C[C@H]2C)cnc1S(C)(=O)=O` [Compound 87, 3-{2-[(3S,4S)-3-{[(6-methanesulfonyl-5-methylpyridin-3-yl)oxy]methyl}-4-methylpyrrolidin-1-yl]ethyl}benzonitrile], the pEC50 was 6.73.
For `COC(=O)CCCS(=O)(=O)c1ccc(OC[C@@H]2CN(CCc3cccc(Cl)c3)C[C@H]2C)cc1` [Compound 79, methyl 4-(4-{[(3S,4S)-1-[2-(3-chlorophenyl)ethyl]-4-methylpyrrolidin-3-yl]methoxy}benzenesulfonyl)butanoate], the pEC50 was 6.48.
For `C[C@@H]1C[C@H](COc2ccc(S(=O)(=O)C3CNC3)cc2)CN1C1CCc2ccc(C#N)cc2C1` (single isomer, unassigned) [Compound 28], the pEC50 was 6.40.
Regarding `C[C@@H]1C[C@H](COc2ccc(S(=O)(=O)C3CNC3)cc2)CN1C1CCc2ccc(C#N)cc2C1` (single isomer, unassigned) [Compound 27], the pEC50 is 6.84.
For `C[C@@H]1CN(CCc2cccc(C#N)c2)C[C@H]1COc1cc(F)c(S(C)(=O)=O)c(F)c1` [Compound 81, 3-{2-[(3S,4S)-3-[(3,5-difluoro-4-methanesulfonylphenoxy)methyl]-4-methylpyrrolidin-1-yl]ethyl}benzonitrile], the negative logarithm of the EC50 (pEC50) is 6.84.
The result for `C[C@@H]1CN(CC(O)c2cccc(Cl)c2)C[C@H]1COc1ccc(S(C)(=O)=O)cc1` (single isomer, unassigned) [Compound 91, (1R) or (1S)-1-(3-chlorophenyl)-2-[trans-3-[(4-methanesulfonylphenoxy)methyl]-4-methylpyrrolidin-1-yl]ethan-1-ol] reads 5.79; that for `C[C@H]1CN(CCc2cccc(Cl)c2)C[C@@H]1COc1ccc(S(C)(=O)=O)cc1` [Compound 92, (3R,4R)-1-[2-(3-chlorophenyl)ethyl]-3-[(4-methanesulfonylphenoxy)methyl]-4-methylpyrrolidine], 5.68; that for `CN=S(C)(=O)c1ccc(OC[C@H]2C[C@@H](C)N(C3CCc4ccc(C#N)cc4C3)C2)cc1` (single isomer, unassigned) [Compound 37, (7R or 7S)-7-[(2R,4S)-2-methyl-4-({4-[methyl(methylimino)oxo-λ^6-sulfanyl]phenoxy}methyl)pyrrolidin-1-yl]-5,6,7,8-tetrahydronaphthalene-2-carbonitrile], 6.11.
Turning to `C[C@@H]1C[C@H](COc2ccc(S(=O)(=O)C3CNC3)cc2)CN1C1CCc2ccc(C#N)cc2C1` (single isomer, unassigned) [Compound 29], the pEC50 is 7.23.
